From patent US20250332119A1, “NOVEL ANTI-INFLAMMATORY COMPOSITION AND USE THEREOF” (ASK CO., LTD., priority 2023, published 2025)

Tests used:
[1] = test system: RAW264.7 (mouse macrophage); test: PGE2 production in LPS-induced mouse macrophages (ELISA); assay type: cell-based; conditions: RAW264.7, LPS, 24 hours
Protocol: (§1) To evaluate the inhibitory ability against nitric oxide and PGE2 production induced by LPS (lipopolysaccharide), mouse macrophages were used to assess the effect on the production of nitric oxide (NO) and prostaglandin E2 (PGE2). The cells used in the experiment were RAW264.7 (mouse macrophage), which were cultured in Dulbecco's modified Eagle's medium (DMEM, Invitrogen) supplemented with 10% fetal bovine serum (FBS, Lonza) and 50 μg/mL streptomycin (Sigma) at 37° C. in 5% CO2.
In addition, to evaluate the production of PGE2, a procedure similar to that described above was followed. The procedures for treating the cells with the sample and LPS after cell culture were identical. Subsequently, 100 μL aliquots of the supernatant were collected and transferred to a new 96-well plate, and diluted 10- to 20-fold with culture medium. In the NSB (Non-specific binding) wells of the Anti-Mouse IgG plate, 100 μL of culture medium was added. Then, 100 μL each of the standard and diluted supernatant were added to the respective wells, followed by 50 μL of blue PGE2-AP conjugate added to all wells except the blank well. 50 μL of culture medium was added to the NSB wells, and 50 μL of yellow PGE2 antibody was added to all wells except the blank and NSB wells. The plate was then shaken using an orbital shaker at 500 rpm for 2 hours at room temperature (22-25° C.). After 2 hours, the contents of the plate were discarded, and the wells were washed three times with 400 μL of washing buffer. Then, 200 μL of substrate solution was added to each well and the plate was incubated at room temperature (22-25° C.) for 45 minutes. After incubation, 50 μL of stop solution was added to each well, and the absorbance was immediately measured at 405 nm using a microplate reader. The PGE2 production rate (%) of macrophages was calculated using Equations 2 and 3 below.

[2] = test system: RAW264.7 (mouse macrophage); test: NO production in LPS-induced mouse macrophages (Griess reagent); assay type: cell-based; conditions: RAW264.7, LPS 1 μg/mL, 24 hours, sample pretreatment 30 minutes, non-cytotoxic concentration range
Protocol: as §1
Specifically, the cells were seeded into 96-well plates at a density of 1× 10^5 cells/well and incubated at 37° C. in a 5% CO2 incubator for 24 hours. The culture medium was removed from the cultured cells, and the medium was replaced with a fresh medium containing the test sample and the cells pre-incubated at 37° C. under 5% CO2 for 30 minutes. Following the 30-minute incubation, LPS was added to a final concentration of 1 μg/mL, and the cells were incubated at 37° C. in a 5% CO2 incubator for 24 hours. After incubation, 100 μL of the supernatant was transferred to a new 96-well plate and mixed with an equal volume of a 1:1 mixture of Griess reagent A and B, then 100 μL aliquot of the resulting mixture was dispensed into each well. Immediately after treatment with Griess reagent, absorbance was measured at 540 nm using a microplate reader. The NO production rate (%) of macrophages was calculated using Equation 1 below.

[3] = test system: TNF-α, IL-6, IL-1B, and NOS2; conditions: Food Funct. 2017; 8 (11): 4150-4158; cited from earlier work
macrophages = conditions: Food Funct. 2017; 8 (11): 4150-4158; cited from earlier work
IL-1α = IL-1α mRNA expression by Realtime qRT-PCR in LPS-induced macrophages; assay type: cell-based, mouse; conditions: RAW264.7, LPS 24 hours
Protocol: (§2) To evaluate the inhibitory ability against inflammatory cytokines induced by LPS (lipopolysaccharide), mouse macrophages were used to assess the effect on the production of IL-1α and TNF-α, which are the early-stage inflammatory molecules. The cells used in the experiment were RAW264.7 (Mouse macrophage), which were cultured at 37° C. under 5% CO2 in Dulbecco's modified Eagle's medium (DMEM, Invitrogen) supplemented with 10% fetal bovine serum (FBS, Lonza) and 50 μg/mL streptomycin (Sigma).
(§3) Specifically, the cells were seeded into 6-well plates at a density of 1×10^6 cells/well and cultured at 37° C. in a 5% CO2 incubator for 24 hours. After removing the culture medium, the cells were replaced with fresh medium containing the sample and pre-incubated at 37° C. under 5% CO2 for 30 minutes. Following pretreatment with the sample for 30 minutes, the cells were exposed with LPS for 24 hours to induce an inflammatory response. As a control, cells treated with LPS alone, without sample treatment, were used.
(§4) Total RNA in cells was then extracted from cultured cells using Trizol reagent (Invitrogen, USA) for RNA analysis. The purity and integrity of the RNA were confirmed by measuring the A260 nm/A280 nm ratio, and RNA yield was measured by absorbance at 260 nm.
(§5) For cDNA synthesis, 3 μg of total RNA was mixed with Oligo dT 15 (500 ng/μL) primer, dNTP (10 mM), RTase inhibitor (40 U/μL), and Powerscript II RTase (Clontech, USA), followed by primer annealing at 25° C. for 10 minutes, cDNA synthesis at 42° C. for 60 minutes, and RTase denaturation at 95° C. for 5 minutes. PCR was performed to amplify IL-1α, TNF-α, and GAPDH from cDNA by mixing 3 μL of cDNA, 5 μL of 10×taq polymerase buffer, 2 μL of 10 mM dNTP, 2 μL each of 10 pmol primers, and 0.5 μL of taq polymerase, followed by the addition of distilled water to a final volume of 50 μL.
(§6) The primer sequences used are shown in Table 1, and the PCR process was carried out using the Real-time qRT PCR method with the LightCycler® 96 System (Roche Diagnostics).

TNF-α = TNF-α mRNA expression by Realtime qRT-PCR in LPS-induced macrophages; assay type: cell-based, mouse; conditions: RAW264.7, LPS 24 hours
Protocol: as §2, §3, §4, §5, §6

skeletal muscle cells = conditions: J Biotechnol. 2023; 368:53-59; cited from earlier work
[4] = test system: human breast carcinoma cells (MCF-7); conditions: Planta Med. 2011; 77 (2): 164-8; cited from earlier work

Structure (SMILES)	PGE2 production [1]	PGE2 production ([1]; listed as linoleic acid)	NO production [2]	expression of proinflammatory cytokines [3]	NO production in macrophages (macrophages)	Relative IL-1α mRNA expression (IL-1α)	Relative TNF-α mRNA expression (TNF-α)	PGE2 production ([1]; listed as araliadiol)	NO production ([2]; listed as araliadiol)	glucose uptake by skeletal muscle cells (skeletal muscle cells)	growth of human breast carcinoma cells (MCF-7) [4]	Relative IL-1α mRNA expression (IL-1α; listed as araliadiol)	Relative TNF-α mRNA expression (TNF-α; listed as araliadiol)
CCCCC/C=C\C/C=C\CCCCCCCC(=O)O [Assay-5, linoleic acid]	increase in PGE2 production with increasing concentration	increased the production of the inflammatory factor PGE2 as its concentration increased	relatively high NO reduction at the lowest concentrations	suppressing the expression of proinflammatory cytokines including TNF-α, IL-6, IL-1B, and NOS2	inhibiting NO production in macrophages	tendency toward decreased IL-1α mRNA expression with increasing concentration	did not inhibit TNF-α mRNA expression	–	–	–	–	–	–
C=CC(O)C#CC#CC(O)/C=C\CCCCC (centres unmarked) [Assay-10, (9Z)-1,9-pentadecadiene-4,6-diyne-3,8-diol]	decrease in PGE2 production with increasing concentration	–	relatively high NO reduction at the lowest concentrations	–	–	tendency toward decreased expression of both IL-1α and TNF-α mRNA with increasing concentration	tendency toward decreased expression of both IL-1α and TNF-α mRNA with increasing concentration	decreased PGE2 production with increasing concentration	higher NO reduction rate than linoleic acid	effectively enhance glucose uptake by skeletal muscle cells	inhibit the growth of human breast carcinoma cells (MCF-7)	relatively more reduced by araliadiol compared to linoleic acid	relatively more reduced by araliadiol compared to linoleic acid
